The target of test [1] is T1, SHP2 (Homo sapiens, UniProt Q06124).
T1 sequence (Q06124 1-593): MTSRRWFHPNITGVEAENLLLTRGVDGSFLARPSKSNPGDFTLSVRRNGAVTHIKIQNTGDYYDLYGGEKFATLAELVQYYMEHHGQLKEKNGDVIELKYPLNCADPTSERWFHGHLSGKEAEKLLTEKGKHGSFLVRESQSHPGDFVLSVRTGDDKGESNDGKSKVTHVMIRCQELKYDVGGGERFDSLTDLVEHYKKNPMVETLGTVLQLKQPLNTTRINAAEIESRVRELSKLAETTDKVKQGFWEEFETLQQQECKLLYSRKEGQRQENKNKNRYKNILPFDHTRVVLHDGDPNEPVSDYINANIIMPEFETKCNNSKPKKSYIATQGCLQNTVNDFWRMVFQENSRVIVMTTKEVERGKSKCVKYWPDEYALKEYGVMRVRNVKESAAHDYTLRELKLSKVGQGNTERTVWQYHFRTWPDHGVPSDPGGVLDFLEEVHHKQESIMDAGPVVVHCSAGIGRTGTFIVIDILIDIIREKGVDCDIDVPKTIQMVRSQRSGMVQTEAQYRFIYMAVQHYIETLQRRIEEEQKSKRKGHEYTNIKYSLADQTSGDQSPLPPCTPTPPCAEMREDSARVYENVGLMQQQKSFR
Briefly: SHP2 biochemical assay (DiFMUP conversion). To be noted: 10 pM SHP2, 0.25 μM pIRS1 peptide, 50 μM DiFMUP. As to the method:
(1) SHP2 Biochemical Assay SHP2 Activity was Monitored by Measuring the Conversion of the Surrogate Substrate 6,8-Difluoromethylumbelliferyl Phosphate (DiEMUP) to the Fluorescent Product, 6,8-Difluoromethylumbelliferone (DiFMU).
SHP2 was pre-incubated with test compounds and the activating peptide pIRS1 (H2N-LN(pY) IDLDLV-(PEG) 8-LST(pY)ASINFQK-amide) for 30 min, prior to addition of the 6,8-difluoromethylumbelliferyl phosphate (DiEMUP), (Thermo Fisher D6567). Final assay concentrations were 10 pM SHP2, 0.25 μM pIRS1 peptide, 50 μM DiFMUP, 25 mM Bis-Tris propane, pH 7.0, 150 mM NaCl, 0.05% (v/v) Tween-20, 0.5 mM TCEP and 5% (v/v) DMSO. Rates of reaction were then measured over 30 min by monitoring fluorescence on a BMG Pherastar reader at excitation 360 nm/emission 450 nm. IC50 values were calculated in singlicate from the normalized dose-response plots using four parameter logistic curve fit. The Experiment for each compound was carried out in one time or multiple times, and the IC50 values were shown as a single value (for a compound measured in a single experiment) or an average value (for a compound measured in multiple experiments).

The subject of test [2] is 97 cell lines harboring driver mutations in KRAS. Kind of test: In vitro cell line screening, 3D cultures (CellTiter-Glo 3D), KRAS panel. The format is cell-based, human. The note with it: sensitive = maximum inhibition greater than 50% relative to DMSO, max 3 μM Compound 1, 1 μM Compound 9, 120-hour incubation. As to the method: The effect of Compound 1 in combination with an ERK inhibitor, Compound 9, on 97 cell lines harboring driver mutations in KRAS (G12A, G12C, G12F, G12R, G12S, G12V, G13C, G13D, A59G, Q61H, Q61K, Q61L or A146T) was assessed using the following technique. Cells from human cancer cells lines (from commercial sources such as ATCC or ECCAC) were grown as 3D cultures by seeding cells into round-bottom ultra-low attachment 96-well tissue culture plates (Corning) followed by centrifugation. Cells were allowed to recover for 16-24 hours prior to compound treatment. Compounds or dimethyl sulfoxide (DMSO) were added at various combinations of compound concentrations in a final DMSO concentration of up to 0.5% (v/v). Following a total of 120-hour incubation, CellTiter-Glo 3D Reagent(registered trademark) (Promega) was added. Plates were incubated for 10 minutes with gentle shaking at room temperature to lyse the cells, then incubated for further 40 minutes at room temperature to stabilize luminescence signal. After mixing, the mixture was transferred to a fresh plate and luminescence was determined on EnVision plate reader (Perkin Elmer).
For both 3D and 2D assays, the combination was tested as matrix of various concentrations of Compound 1 and Compound 9. The maximum concentrations of Compound 1 and Compound 9 used were 3 μM and 1 μM, respectively. Signals were normalized to that of the average of the DMSO control wells. […] For each cell line, the maximum % inhibition values were obtained for Compound 1 alone, Compound 9 alone and the combination of both compounds. The degree of drug interaction (i.e. synergy, additivity or antagonism) was quantified for each cell line by the Bliss independence model using the Synergyfinder R package (Ref: He L. et al. (2018) Methods for High-throughput Drug Combination Screening and Synergy Scoring. In: von Stechow L. (eds) Cancer Systems Biology. Methods in Molecular Biology, vol 1711. Humana Press, New York, N.Y.). For each cell line, a single score metric, the sum of synergy and antagonism across screened drug concentrations (SUM_SYN_ANT) (Ref: Di Veroli G. Y. et al (2016) Bioinformatics 32(18):2866-2868), was calculated. Synergy was defined as a score of 21 or above.

pIC50: −log10 of the molar value.

For `Cn1nc2ccc(-c3c[nH]c4nc(N5[C@H]6CC[C@@H]5[C@H](N)C6)n(C)c(=O)c34)c(Cl)c2c1Cl` [Compound 1, 2-((1R,2R,4S)-2-amino-7-azabicyclo[2.2.1]heptan-7-yl)-5-(3,4-dichloro-2-methyl-2H-indazol-5-yl)-3-methyl-3,7-dihydro-4H-pyrrolo[2,3-d]pyrimidin-4-one], in test [1], the pIC50 (in general, the IC50 on a negative log10 scale, so that one unit is a factor of ten) is 8.70. In addition, in test [2], the “Number of cell lines sensitive” value came out at 38 and the “Number of cell lines sensitive (% of total)” value is on record as “(39.2) %”.
